The results in this text go back to ChEMBL document CHEMBL1141954, “Indole-2-carboxamidines as novel NR2B selective NMDA receptor antagonists” (Bioorg Med Chem Lett, 2005).

The species named for one test is Mus musculus. The experiment in a line: Oral efficacy in mice formalin test. It counts as functional.
Test [1] deals with Glutamate NMDA receptor. The experiment in a line: Inhibition of NMDA-evoked intracellular calcium increase in rat cortical cells. The test is classed as functional, cell-based.
In test [2] the target is Glutamate NMDA receptor. The test is described as follows: Inhibition of NMDA-evoked intracellular calcium increase in rat cortical cell at 1 uM. It counts as functional, cell-based.
The target of test [3] is Glutamate NMDA receptor; GRIN1/GRIN2A (Homo sapiens) (UniProt Q05586+Q12879). The experiment in a line: Inhibitory activity against NR1A expressed in combination with NR2A at 15 uM.

In the test filed under Mus musculus, `COc1ccccc1C/N=C(\N)c1cc2ccccc2[nH]1.Cl` registered a 50% effective dose (ED50) of 15 mg/kg. The IC50 on Glutamate NMDA receptor [1] is 35 nM. Turning to `COc1ccccc1CNC(=N)/C=C/c1ccccc1`, the 50% inhibitory concentration (IC50) at Glutamate NMDA receptor [1] is 6.6 nM.

As for `N=C(NCc1ccccc1F)c1cc2ccccc2[nH]1`, at Glutamate NMDA receptor [1], the half-inhibitory concentration (IC50) was 232 nM. On the same count and under the same terms, the same measure for `N=C(NCc1c(F)cccc1F)c1cc2ccccc2[nH]1`: 143 nM.

Turning to `COc1ccc(C/N=C(\N)c2cc3ccccc3[nH]2)cc1.Cl`, the inhibition on Glutamate NMDA receptor [2] turned out to be 10.5%.

Turning to `COc1ccccc1C/N=C(\N)c1cc2cc(F)ccc2[nH]1`, on Glutamate NMDA receptor [1], the IC50 was 33 nM. For `COc1ccc2[nH]c(C(=N)NCc3ccccc3OC)cc2c1`, the IC50 at Glutamate NMDA receptor [1] turned out to be 19 nM. `COc1ccc2[nH]c(C(=N)NCc3c(OC)cccc3OC)cc2c1`: the IC50 at Glutamate NMDA receptor [1] came to 26 nM. On the same count and under the same terms, the same measure for `COc1cccc(OC)c1C/N=C(\N)c1cc2cc(Cl)ccc2[nH]1`: 69 nM. On to `Cl.N=C(NCc1ccccc1)c1cc2ccccc2[nH]1`, for which the inhibition at Glutamate NMDA receptor [2] stood at 32.8%.

For `N=C(NCc1cc(Cl)cc(Cl)c1)c1cc2ccccc2[nH]1`, at Glutamate NMDA receptor [1], the half-inhibitory concentration (IC50) stood at 159 nM. Turning to `COc1ccccc1C/N=C(\N)c1cc2cc(Cl)ccc2[nH]1`, the 50% inhibitory concentration (IC50) on Glutamate NMDA receptor [1] came to 64 nM.

As for `COc1cccc(C/N=C(\N)c2cc3ccccc3[nH]2)c1.Cl`, the inhibition on Glutamate NMDA receptor [2] is reported as 57%.

For `COc1cccc(OC)c1C/N=C(\N)c1cc2ccccc2[nH]1`, the inhibition in test [3] amounted to 32.1%. Further, at Glutamate NMDA receptor [1], the concentration for half-maximal inhibition (IC50) was 5.4 nM.

Consider `COc1cccc(OC)c1C/N=C(\N)c1cc2cc(F)ccc2[nH]1`, for which the IC50 on Glutamate NMDA receptor [1] stood at 17 nM.

Turning to `Cc1ccccc1C/N=C(\N)c1cc2ccccc2[nH]1`, the half-inhibitory concentration (IC50) at Glutamate NMDA receptor [1] is 170 nM.
